Results on two compounds are retold here after patent US10556898B2, “Indazolyl-1,2,4-thiadiazolamines and related compounds for inhibition of Rho-associated protein kinase and the treatment of disease” (Lycera Corporation, priority 2016, dated 2020).

SMILES strings stand for the structures. Some results are limits rather than exact numbers.

For experiment [1] the following is noted: porcine model of IL-1 beta-induced coronary stenosis; cited from earlier work.
The conditions of experiment [2]: rat stroke model; cited from earlier work.
For experiment [3], the target named is T1, GST-tagged human ROCK1 catalytic domain 1-477 (Homo sapiens, UniProt Q13464).
T1 construct: human ROCK1 catalytic domain 1-477 from Carna Biosciences (cat #01-109); purchased Carna Biosciences 01-109; host or cells: baculovirus expression system
T1 sequence (Q13464 1-477): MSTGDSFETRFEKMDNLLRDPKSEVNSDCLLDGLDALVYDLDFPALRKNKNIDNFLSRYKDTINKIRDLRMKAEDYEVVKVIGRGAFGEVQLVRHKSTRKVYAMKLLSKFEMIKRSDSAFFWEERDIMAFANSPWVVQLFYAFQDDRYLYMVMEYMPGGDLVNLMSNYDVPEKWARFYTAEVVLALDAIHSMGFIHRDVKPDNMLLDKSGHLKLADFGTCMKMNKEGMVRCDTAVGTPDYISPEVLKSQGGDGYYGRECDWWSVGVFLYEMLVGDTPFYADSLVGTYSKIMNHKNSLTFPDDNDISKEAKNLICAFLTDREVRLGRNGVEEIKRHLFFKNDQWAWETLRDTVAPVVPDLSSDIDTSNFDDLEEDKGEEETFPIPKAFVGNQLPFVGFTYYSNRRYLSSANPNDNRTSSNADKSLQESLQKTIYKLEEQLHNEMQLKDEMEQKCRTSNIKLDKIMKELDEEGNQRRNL
Briefly: Isolated Enzyme Assay, ROCK1 (LANCE Ultra ULight-CREBtide FRET). The conditions noted are these: isolated enzyme assay; 30 μM highest concentration tested; read-out: Results from Isolated Enzyme Assay IC50 (μM) ROCK1. In kind it is biochemical. In a few lines:
(§1)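 Baculovirus-expressed constitutively active ROCK1 or ROCK2 (2 nM) incubated 90 min at room temperature with 50 nM ULight-CREBtide and compound (0.5% DMSO) in Tris pH 7.5, MgCl2, EGTA, Tween-20, DTT. EDTA-stopped; phospho-substrate detected by Eu-anti-phospho-CREB TR-FRET after 60 min; IC50 by non-linear regression.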
A general note: TR-FRET usually uses a lanthanide donor and a delayed reading to cut background.

Experiment [4] addresses T2, GST-tagged human ROCK2 catalytic domain 1-553 (Homo sapiens, UniProt O75116).
T2 construct: GST-tagged human ROCK2 catalytic domain 1-553 from Carna Biosciences (Cat #01-110); purchased Carna Biosciences 01-110; host or cells: baculovirus expression system
Briefly: Isolated Enzyme Assay, ROCK2 (LANCE Ultra ULight-CREBtide FRET). In kind it is biochemical. The settings on record: isolated enzyme assay; 30 μM highest concentration tested; read-out: Results from Isolated Enzyme Assay IC50 (μM) ROCK2. In a few lines: as §1

The target in another experiment is T3, ROCK1 (Homo sapiens, UniProt Q13464).
T3 construct: endogenous in cells; host or cells: HAP1 knockout cells
T3 sequence (Q13464 whole entry): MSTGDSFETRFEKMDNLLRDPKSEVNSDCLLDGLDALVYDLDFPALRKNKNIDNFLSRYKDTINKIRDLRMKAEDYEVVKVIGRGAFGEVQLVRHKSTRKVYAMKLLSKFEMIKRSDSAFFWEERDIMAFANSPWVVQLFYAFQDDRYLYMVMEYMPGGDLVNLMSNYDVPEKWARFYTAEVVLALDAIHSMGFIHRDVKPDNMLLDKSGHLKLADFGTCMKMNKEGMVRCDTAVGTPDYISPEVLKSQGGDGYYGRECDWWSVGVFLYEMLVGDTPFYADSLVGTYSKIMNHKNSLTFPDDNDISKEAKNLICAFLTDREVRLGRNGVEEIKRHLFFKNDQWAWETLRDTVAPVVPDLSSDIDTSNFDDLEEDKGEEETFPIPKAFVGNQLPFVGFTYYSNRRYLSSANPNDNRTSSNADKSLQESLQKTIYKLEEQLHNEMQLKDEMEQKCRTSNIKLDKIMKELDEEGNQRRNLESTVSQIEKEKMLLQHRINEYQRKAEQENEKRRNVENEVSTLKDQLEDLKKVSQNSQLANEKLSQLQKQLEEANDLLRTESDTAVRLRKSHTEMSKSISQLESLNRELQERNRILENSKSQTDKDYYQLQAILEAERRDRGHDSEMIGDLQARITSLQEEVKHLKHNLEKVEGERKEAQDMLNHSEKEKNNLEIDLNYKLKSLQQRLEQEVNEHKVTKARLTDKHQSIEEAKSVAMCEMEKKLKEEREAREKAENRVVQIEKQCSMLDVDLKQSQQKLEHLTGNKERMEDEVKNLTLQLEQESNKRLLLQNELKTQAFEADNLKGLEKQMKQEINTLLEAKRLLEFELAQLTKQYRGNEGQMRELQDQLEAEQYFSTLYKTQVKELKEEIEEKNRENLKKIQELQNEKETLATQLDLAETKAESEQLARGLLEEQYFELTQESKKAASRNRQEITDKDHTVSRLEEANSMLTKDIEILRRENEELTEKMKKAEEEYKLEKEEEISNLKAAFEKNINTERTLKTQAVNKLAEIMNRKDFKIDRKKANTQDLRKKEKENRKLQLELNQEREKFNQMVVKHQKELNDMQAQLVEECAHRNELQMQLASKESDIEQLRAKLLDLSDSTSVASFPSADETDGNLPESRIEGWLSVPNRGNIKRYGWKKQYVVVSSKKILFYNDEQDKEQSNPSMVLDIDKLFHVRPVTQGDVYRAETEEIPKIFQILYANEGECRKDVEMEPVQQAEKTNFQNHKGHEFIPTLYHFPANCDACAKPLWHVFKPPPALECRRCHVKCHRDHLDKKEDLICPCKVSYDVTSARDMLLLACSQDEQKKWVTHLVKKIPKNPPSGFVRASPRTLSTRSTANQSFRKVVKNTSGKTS
The experiment is described as follows: Cell-Based Assay, ROCK1 (HAP1 knockout cells, phospho-MYPT1 Thr853 ELISA). The conditions noted are these: numeric bound, read-out: Results from Cell-Based Assay IC50 (μM) ROCK1. The protocol: Part II—Procedure for Determining ROCK Inhibition Ability of Test Compounds Using a Cell-Base Assay
The Cell-Based Assay for determining ROCK inhibition ability of test compounds utilized a genetically modified HAP1 cell line engineered to eliminate expression of either ROCK1 or ROCK2. In the procedure, HAP1 knockout cells are grown in Iscove's Modified Dulbecco's Medium that is additionally supplemented with 10% fetal bovine and 1x antibiotic-antimycotic mixture. Cells are plated in 96 well tissue culture plates at 1×10^5 cells/well (100 μL, of cells at 1×10^6/mL). Test compounds are solubilized in DMSO and diluted into the same media used to grow the cells. A 100 μL, aliquot of each compound dilution in media is added to each well containing the HAP1 cells and incubated at 37° C. for 30 minutes. Following compound incubation, the cells are pelleted by centrifugation at 1800 rpm for 5 minutes at 4° C. Media is removed from the cell pellet and the cells lysed and de-salted. An 80 μL, aliquot of each cell lysate is added to a single well of a 96-well high binding ELISA plate which has been pre-coated with a MYPT1 capture antibody and incubated at 4° C. overnight. The following day the ELISA plate is washed 4× with 0.05% Tween-20 in PBS. After washing, an anti-phospho-MYPT1 (Thr853) antibody is added and allowed to bind for 1 hour at room temperature. The wash step is repeated, and then an anti-rabbit HRP detection antibody is added and allowed to incubate at room temperature for 1 hour. The wash step is then repeated and 100 μL/well 1-Step™ Ultra TMB substrate is added to the ELISA plate and allowed to develop for approximately 5 minutes. The reaction is stopped by addition of H2SO4. Absorbance is read at 450 OD. Data is analyzed using GraphPad Prism software to calculate the 50% inhibitory concentration of test compound (IC50).
For orientation: An ELISA detects its analyte on a solid surface through an enzyme-linked reagent.

For the next experiment, the target named is T4, ROCK2 (Homo sapiens, UniProt O75116).
T4 construct: endogenous in cells; host or cells: HAP1 knockout cells
T4 sequence (O75116 whole entry): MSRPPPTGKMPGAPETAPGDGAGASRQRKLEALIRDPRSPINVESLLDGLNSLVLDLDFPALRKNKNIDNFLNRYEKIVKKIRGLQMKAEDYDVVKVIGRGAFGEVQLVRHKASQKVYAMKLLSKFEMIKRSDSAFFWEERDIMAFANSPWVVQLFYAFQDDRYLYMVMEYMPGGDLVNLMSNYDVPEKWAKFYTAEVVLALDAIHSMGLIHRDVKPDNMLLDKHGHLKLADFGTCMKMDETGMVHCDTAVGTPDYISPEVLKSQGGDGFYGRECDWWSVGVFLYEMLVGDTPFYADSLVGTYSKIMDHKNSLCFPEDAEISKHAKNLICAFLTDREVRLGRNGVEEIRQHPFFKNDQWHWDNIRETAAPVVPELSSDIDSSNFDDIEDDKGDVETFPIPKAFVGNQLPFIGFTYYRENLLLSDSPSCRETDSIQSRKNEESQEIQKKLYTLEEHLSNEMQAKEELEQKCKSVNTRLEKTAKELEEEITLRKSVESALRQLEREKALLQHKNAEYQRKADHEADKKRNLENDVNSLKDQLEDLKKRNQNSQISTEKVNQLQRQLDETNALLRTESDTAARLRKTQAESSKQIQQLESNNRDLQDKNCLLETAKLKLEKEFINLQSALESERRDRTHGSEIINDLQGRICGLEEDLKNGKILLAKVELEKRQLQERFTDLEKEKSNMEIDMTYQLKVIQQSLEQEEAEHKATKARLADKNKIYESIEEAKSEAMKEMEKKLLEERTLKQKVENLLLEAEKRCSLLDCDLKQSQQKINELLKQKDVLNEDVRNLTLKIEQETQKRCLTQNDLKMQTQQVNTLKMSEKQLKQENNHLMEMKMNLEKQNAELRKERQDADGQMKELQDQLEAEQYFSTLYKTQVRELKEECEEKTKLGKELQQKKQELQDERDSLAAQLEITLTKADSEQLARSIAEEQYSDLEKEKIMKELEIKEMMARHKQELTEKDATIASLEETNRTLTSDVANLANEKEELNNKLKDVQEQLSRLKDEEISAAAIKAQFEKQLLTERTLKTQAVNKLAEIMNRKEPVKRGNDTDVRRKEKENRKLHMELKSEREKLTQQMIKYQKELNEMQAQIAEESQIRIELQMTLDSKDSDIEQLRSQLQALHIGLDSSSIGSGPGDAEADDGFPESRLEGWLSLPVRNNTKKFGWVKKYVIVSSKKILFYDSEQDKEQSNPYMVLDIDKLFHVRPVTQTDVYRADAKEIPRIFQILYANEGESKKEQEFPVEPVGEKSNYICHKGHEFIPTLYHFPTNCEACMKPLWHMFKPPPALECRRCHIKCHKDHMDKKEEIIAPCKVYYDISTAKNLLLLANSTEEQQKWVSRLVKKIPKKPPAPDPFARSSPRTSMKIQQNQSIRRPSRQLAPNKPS
The experiment is described as follows: Cell-Based Assay, ROCK2 (HAP1 knockout cells, phospho-MYPT1 Thr853 ELISA). The settings on record: numeric bound, read-out: Results from Cell-Based Assay IC50 (μM) ROCK2.

T2 sequence (O75116 1-553): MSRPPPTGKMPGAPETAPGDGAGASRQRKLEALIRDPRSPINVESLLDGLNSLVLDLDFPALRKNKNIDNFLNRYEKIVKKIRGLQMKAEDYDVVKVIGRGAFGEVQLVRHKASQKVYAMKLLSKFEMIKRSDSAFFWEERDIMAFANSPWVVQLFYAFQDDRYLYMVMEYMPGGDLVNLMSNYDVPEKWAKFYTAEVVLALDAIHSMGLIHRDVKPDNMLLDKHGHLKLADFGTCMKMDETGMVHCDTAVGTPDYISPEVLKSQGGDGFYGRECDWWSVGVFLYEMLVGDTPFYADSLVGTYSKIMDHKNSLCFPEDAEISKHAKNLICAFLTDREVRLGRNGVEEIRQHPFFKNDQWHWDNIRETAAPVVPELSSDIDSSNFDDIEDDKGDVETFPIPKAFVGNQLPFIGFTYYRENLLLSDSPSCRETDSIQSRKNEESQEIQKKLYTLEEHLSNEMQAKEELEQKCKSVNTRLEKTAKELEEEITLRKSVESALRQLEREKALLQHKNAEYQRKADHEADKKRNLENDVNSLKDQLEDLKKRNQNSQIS

For the compound `O=S(=O)(c1cccc2cnccc12)N1CCCNCC1` [fasudil], in experiment [1], the coronary stenosis entry was “progressively reduce coronary stenosis”. Further, in experiment [2], the “infarct size and neurologic deficit” value is “reduce both the infarct size and neurologic deficit”.
One may read the IC50 as the concentration at which inhibition is half-maximal. For the compound `COc1ncc(C(=O)Nc2cncc(-c3nsc(Nc4ccc5[nH]ncc5c4Cl)n3)c2)cn1` [IV-8], the concentration for half-maximal inhibition (IC50) in experiment [3] is above 30 µM; in experiment [4] it was below 1 µM; on ROCK1 it was above 10 µM; on ROCK2, above 10 µM.
